In one test the target is T1, Thromboxane A2 receptor (Homo sapiens, UniProt P21731).
T1 sequence (P21731 whole entry): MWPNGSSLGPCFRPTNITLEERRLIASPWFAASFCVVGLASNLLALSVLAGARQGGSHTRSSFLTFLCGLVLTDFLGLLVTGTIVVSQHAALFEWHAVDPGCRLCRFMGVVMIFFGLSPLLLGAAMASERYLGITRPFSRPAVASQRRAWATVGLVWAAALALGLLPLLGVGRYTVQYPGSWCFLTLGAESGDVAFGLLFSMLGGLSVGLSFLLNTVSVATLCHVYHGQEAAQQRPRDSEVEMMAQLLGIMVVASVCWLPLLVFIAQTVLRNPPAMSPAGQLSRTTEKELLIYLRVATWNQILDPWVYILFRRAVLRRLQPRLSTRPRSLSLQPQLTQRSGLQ
Briefly: Thromboxane (TXA2) receptor antagonist activity using human platelet. It is filed as functional. To be noted: for Kb: read-out: pA2 (converted).

The next test concerns the target T2, Thromboxane-A synthase (Homo sapiens, UniProt P24557).
T2 sequence (P24557 whole entry): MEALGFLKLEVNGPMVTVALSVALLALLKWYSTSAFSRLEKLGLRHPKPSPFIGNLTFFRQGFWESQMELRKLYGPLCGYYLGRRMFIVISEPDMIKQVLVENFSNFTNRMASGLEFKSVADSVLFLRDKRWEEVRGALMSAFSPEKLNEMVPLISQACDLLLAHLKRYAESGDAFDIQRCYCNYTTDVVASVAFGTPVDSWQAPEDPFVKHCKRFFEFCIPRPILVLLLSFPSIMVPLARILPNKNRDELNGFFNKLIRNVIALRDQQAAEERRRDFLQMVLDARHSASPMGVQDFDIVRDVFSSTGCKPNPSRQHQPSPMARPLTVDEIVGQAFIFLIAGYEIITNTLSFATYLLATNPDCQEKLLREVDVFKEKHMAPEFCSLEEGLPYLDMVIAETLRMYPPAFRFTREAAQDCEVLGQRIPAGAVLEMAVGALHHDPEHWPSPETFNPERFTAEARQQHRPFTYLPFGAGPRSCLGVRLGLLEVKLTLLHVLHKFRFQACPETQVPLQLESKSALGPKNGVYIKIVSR
Briefly: Compound was tested for thromboxane TXA2 synthase inhibitory activity using human platelet.

Test [1] deals with Canis familiaris. Briefly: Compound was tested for plasma concentration ratio at 2 hr in conscious dogs at specified time intervals at a dose of 0.05 mg/kg. It is filed as functional, Canis lupus familiaris.
Test [2] concerns Canis familiaris. Put plainly: Compound was tested for plasma concentration ratio at 8 hr in conscious dogs at specified time intervals at a dose of 0.05 mg/kg. It is filed as functional, Canis lupus familiaris.
Test [3] concerns the target T3, Thromboxane-A synthase (Homo sapiens) (UniProt P24557).
T3 sequence (whole entry): T2 sequence (P24557 whole entry)
Put plainly: (§1) Compound was evaluated for inhibition of TXA2 synthase by measuring collagen stimulated TXB2 production in the blood samples after 8 hr time at a dose of 1.0 mg/kg. It is filed as functional, organism-based. Further details: dose 1 mg/kg. To be noted: Canis lupus familiaris.

Test [4] has as its target T3, Thromboxane-A synthase (Homo sapiens). Briefly: Compound was evaluated for inhibition of TXA2 synthase by measuring collagen stimulated TXB2 production in the blood samples after 2 hr time at a dose of 1.0 mg/kg. It is filed as functional, organism-based. Further details: dose 1 mg/kg. To be noted: Canis lupus familiaris.
The test system of test [5] is Canis familiaris. Put plainly: Compound was tested for plasma concentration ratio at 8 hr in conscious dogs at specified time intervals at a dose of 1.0 mg/kg. It is filed as functional, Canis lupus familiaris.
The target in test [6] is T3, Thromboxane-A synthase (Homo sapiens). The test is described as §1. It is filed as functional, organism-based. Further details: dose 1 mg/kg. To be noted: Canis lupus familiaris. The source holds these as a separate data set.
The subject of test [7] is Canis familiaris. Put plainly: Compound was tested for plasma concentration ratio at 2 hr in conscious dogs at specified time intervals at a dose of 1.0 mg/kg. It is filed as functional, Canis lupus familiaris.
Test [8] deals with Canis familiaris. Put plainly: Compound was tested ex vivo for plasma concentration ratio at 8 hr in conscious dogs at specified time intervals at a dose of 0.05 mg/kg. It is filed as functional, Canis lupus familiaris.
The target of test [9] is T3, Thromboxane-A synthase (Homo sapiens). Put plainly: Compound was evaluated for inhibition of TXA2 synthase by measuring collagen stimulated TXB2 production in the blood samples after 8 hr time at a dose of 0.05 mg/kg. It is filed as functional, organism-based. Further details: dose 0.05 mg/kg. To be noted: Canis lupus familiaris.
Test [10] has the same target. Briefly: Compound was evaluated for inhibition of TXA2 synthase by measuring collagen stimulated TXB2 production in the blood samples after 2 hr time at a dose of 0.05 mg/kg. It is filed as functional, organism-based. Further details: dose 0.05 mg/kg. To be noted: Canis lupus familiaris.
The test system of test [11] is Canis familiaris. Put plainly: Compound was tested ex vivo for plasma concentration ratio at 2 hr in conscious dogs at specified time intervals at a dose of 0.05 mg/kg. It is filed as functional, Canis lupus familiaris.

Where “and” joins values, the source holds several entries; their conditions need not be identical. Equal values may be shown once.

By IC50 is commonly meant the concentration that gives 50% inhibition. Lower therefore signals inhibition by little substance. With `N#Cc1ccc([C@H]2OC[C@@H](C/C=C\CCC(=O)OCCCCCCOC(=O)CC/C=C\C[C@@H]3CO[C@H](c4ccc(C#N)cc4)O[C@@H]3c3ccccc3O)[C@@H](c3cccnc3)O2)cc1`, the Kb at Thromboxane A2 receptor was 10 µM. At Thromboxane-A synthase, this compound came in with an IC50 greater than 10 µM.
For `N#Cc1ccc([C@H]2OC[C@@H](C/C=C\CCC(=O)Oc3ccc(OC(=O)CC/C=C\C[C@@H]4CO[C@H](c5ccc(C#N)cc5)O[C@@H]4c4ccccc4O)cc3)[C@@H](c3cccnc3)O2)cc1`, in that order: 10 µM and greater than 10 µM.
For `N#Cc1ccc([C@H]2OC[C@@H](C/C=C\CCC(=O)NCCCCCCNC(=O)CC/C=C\C[C@@H]3CO[C@H](c4ccc(C#N)cc4)O[C@@H]3c3ccccc3O)[C@@H](c3cccnc3)O2)cc1`, in that order: 10 µM and greater than 10 µM.
On to `N#Cc1ccc([C@H]2OC[C@@H](C/C=C\CCC(=O)Oc3ccccc3OC(=O)CC/C=C\C[C@@H]3CO[C@H](c4ccccc4Cl)O[C@@H]3c3ccccc3O)[C@@H](c3cccnc3)O2)cc1` (stereo in doubt; 16 (-)) [listing 1 of 2 here], for which the Kb on Thromboxane A2 receptor was 10 µM. The IC50 against Thromboxane-A synthase is greater than 10 µM. Further, the Ratio in the test with Canis familiaris [1] (0.05 mg/kg) is listed as 35; with Canis familiaris [2] (0.05 mg/kg), 150.
For `N#Cc1ccc([C@H]2OC[C@@H](C/C=C\CCC(=O)OCCOC(=O)CC/C=C\C[C@@H]3CO[C@H](c4ccc(C#N)cc4)O[C@@H]3c3ccccc3O)[C@@H](c3cccnc3)O2)cc1`, the Kb on Thromboxane A2 receptor is greater than 10 µM. At Thromboxane-A synthase, this compound yielded an IC50 greater than 10 µM.
The term inhibition denotes the relative decrease from the control value, in per cent. A high value points to a response far below the control. For `N#Cc1ccc([C@H]2OC[C@@H](C/C=C\CCC(=O)O)[C@@H](c3cccnc3)O2)cc1`, the Kb at Thromboxane A2 receptor is 1.26 µM. Further, the inhibition in test [3] is 84%; in [4], 97% and 84%; in [6], 93%. On Thromboxane-A synthase, this compound had a 50% inhibitory concentration (IC50) of 0.02 µM. Also, the values for the Ratio in the test with Canis familiaris [5] and with Canis familiaris [7] were 1.3 and 1.4, respectively.
On to `N#Cc1ccc([C@H]2OC[C@@H](C/C=C\CCC(=O)NCCNC(=O)CC/C=C\C[C@@H]3CO[C@H](c4ccc(C#N)cc4)O[C@@H]3c3ccccc3O)[C@@H](c3cccnc3)O2)cc1`, for which, at Thromboxane A2 receptor, the Kb is 10 µM. This compound returned an IC50 against Thromboxane-A synthase greater than 10 µM.
On to `N#Cc1ccc([C@H]2OC[C@@H](C/C=C\CCC(=O)O)[C@@H](c3ccccc3O)O2)cc1`, for which the Kb on Thromboxane A2 receptor was 0.00501 µM. Moreover, the Ratio in the test with Canis familiaris [8] is 35; in the test on Canis familiaris [11], 60. The compound also yielded an IC50 at Thromboxane-A synthase greater than 10 µM. The inhibition in test [9] and in test [10] was greater than 50% throughout.
For `N#Cc1ccc([C@H]2OC[C@@H](C/C=C\CCC(=O)Oc3ccccc3OC(=O)CC/C=C\C[C@@H]3CO[C@H](c4ccc(C#N)cc4)O[C@@H]3c3ccccc3O)[C@@H](c3cccnc3)O2)cc1`, the Kb at Thromboxane A2 receptor was 10 µM. Also, the IC50 at Thromboxane-A synthase is greater than 10 µM. Further, the results for the inhibition in test [9] and in test [10] were less than 50% and 68%, respectively. Besides, the Ratio is recorded as 587 in the test with Canis familiaris [1] and 283 with Canis familiaris [2].
Consider `N#Cc1ccc([C@H]2OC[C@@H](C/C=C\CCC(=O)Oc3ccccc3OC(=O)CC/C=C\C[C@@H]3CO[C@H](c4ccccc4Cl)O[C@@H]3c3ccccc3O)[C@@H](c3cccnc3)O2)cc1` (stereo in doubt; 16 (-)) [listing 2 of 2 here], for which the inhibition amounted to 64% in [9] and 31% in test [10].
Compound `O=C(O)CC/C=C\C[C@@H]1CO[C@H](c2ccccc2Cl)O[C@@H]1c1ccccc1O` showed an IC50 against Thromboxane-A synthase greater than 10 µM. For the same compound, the inhibition in test [9] and in test [10] was greater than 50% in each case.
Take `N#Cc1ccc([C@H]2OC[C@@H](C/C=C\CCC(=O)Oc3ccccc3OC(=O)CC/C=C\C[C@@H]3CO[C@H](c4ccccc4Cl)O[C@@H]3c3ccccc3O)[C@@H](c3cccnc3)O2)cc1` (stereo in doubt; 15) [listing 1 of 2 here]: the inhibition turned out to be 57% in test [9] and 54% in [10].
The term pA2 denotes the negative logarithm of the molar antagonist concentration that doubles the agonist concentration needed for the same response. Low values mean lower antagonist potency, high ones higher antagonist potency. Compound `N#Cc1ccc([C@H]2OC[C@@H](C/C=C\CCC(=O)Oc3ccccc3OC(=O)CC/C=C\C[C@@H]3CO[C@H](c4ccccc4Cl)O[C@@H]3c3ccccc3O)[C@@H](c3cccnc3)O2)cc1` (stereo in doubt; 15) [listing 2 of 2 here] registered a pA2 at Thromboxane A2 receptor of 5. Moreover, on Thromboxane-A synthase, the IC50 was greater than 10 µM. The Ratio in the test on Canis familiaris [1] (0.05 mg/kg) is recorded as 140; with Canis familiaris [2] (0.05 mg/kg) it was 170.

Values taken from ChEMBL document CHEMBL1129776, “Design of dual-acting thromboxane antagonist-synthase inhibitors by a mutual prodrug approach” (Bioorg Med Chem Lett, 1996).
